What was measured:
MRSA [1] = assay: Potentiation screening assay: methicillin MIC reduction in MRSA; format: cell-based, Staphylococcus aureus; details: 0, 5, and 10 μg/ml test compound
Experimental: After regrowth at 35° C. to an OD600 of 0.2-0.4 (1-2 hrs.), the cells are diluted 1/1000 in MHB. […] The plate is placed in a humidified 35° C. incubator for 5-24 hours, and cell growth or inhibition is read as turbidity (OD600). Two positive and one negative controls for growth are cells grown MHB, cells grown in MHB plus 20 μg/ml methicillin alone (without test compound), and uninoculated MHB respectively.
Compounds which meet the first two criteria for follow-up are evaluated in a standard microdilution assessment of the MIC with methicillin for MRSA. (see Lorian, Antibiotics in Laboratory Medicine, 3rd ed., pp. 72-75 (1991).) In order to be carried further, the MIC of methicillin preferably is reduced in the presence of the potentiator to at most twice the MIC of a susceptible strain for methicillin.
MICs for the compounds were determined in the presence of 0, 5, and 10 μg/ml of each compound. MRSA cells were grown in the presence of 0, 5, and 10 μg/ml test compound and concentrations of methicillin obtained from serial two-fold dilutions starting at 1024 μg/ml to 0.002 μg/ml (This range can be extended or refined as appropriate.) as follows: A fresh inoculum of MRSA cells was grown at 35° C. in Mueller-Hinton Broth (MHB) overnight and then diluted 1/50 in the same medium. After regrowth at 35° C. to an OD600 of 0.2-0.4 (1-2 hrs.), the cells were diluted 1/1000 in MHB. […] The plate was placed in a humidified 35° C. incubator for 24 hours, and cell growth or inhibition was read as turbidity (OD600).

MRSA [2] = assay: Specificity: intrinsic antibacterial activity without antibacterial agent; format: cell-based, Staphylococcus aureus; details: test compound alone, without methicillin
Experimental: In order to ascertain that the test compound is not primarily responsible for inhibition of growth, MRSA cells are grown in the presence of 5 μg/ml test compound as follows: A fresh inoculum of MRSA cells is grown at 35° C. in Mueller-Hinton Broth (MHB) overnight and then diluted 1/50 in the same medium. After regrowth at 35° C. to an OD600 of 0.2-0.4 (1-2 hrs.), the cells are diluted 1/1000 in MHB. In a microtiter plate, 50 μl of this diluted culture is combined with 50 μl MHB containing 10 μg/ml test compound to give starting growth conditions of 5×10^5 cfu/ml in MHB, with 5 μg/ml test compound. The plate is placed in a humidified 35° C. incubator for 5-24 hours, and cell growth or inhibition is read as turbidity (OD600). To be carried forward to the next step of the potentiator screening assay, the test compound should have little or no intrinsic anti-staphylococcal activity (growth should be at least 75% of the growth of the positive control without methicillin, corrected for background), or that activity should be explicable without indicating the probability of human toxicity.

[3] = system: Enterococcus faecalis VanB; assay: Checkerboard assay / dose range study with vancomycin; format: cell-based
Description: (§1) FIG. 9a provides the results of checkerboard assays showing the MIC reduction for vancomycin in the presence of a range of concentrations of brazilin against two Enterococcus faecalis strains, one VanA and the other VanB. […] Similarly, FIG. 9b provides the results of checkerboard assays showing the MIC reduction for vancomycin in the presence of a range of concentrations of 6-ethyl-7-[1-oxo-3-(1-pyrrolidino)]propyl-1,2,3,4-tetrahydro-1,1,4,4-tetramethylnaphthalene (EOPPTTN).
(§2) Two of the three compounds (brazilin and 6-ethyl-7-[oxo-3-(1-pyrrolidino)]propyl-1,2,3,4-tetrahydro-1,1,4,4-tetramethylnaphthalene) have been examined for synergy with vancomycin. […] Two examples of reasons for alterations are for further optimization, and for modification for use with other bacterial strains or species.

[4] = system: Enterococcus faecalis VanA; assay: as above; format: cell-based
Description: as §1, §2

E. faecalis VanA strain = assay: Vancomycin potentiation screens VPS-20 and VPS-D-ala; format: cell-based, Enterococcus faecalis; details: 10 ug/ml test compound
Experimental: In the VPS-20 protocol, vancomycin is used at 20 ug/ml, test compounds are used at 10 ug/ml (this is not critical, a range could be used as well). The growth medium is Brain Heart Infusion broth however, any of a variety of media which will support growth of the specific bacterial strain can be used. The VPS-D-Ala screen uses 8 ug/ml of vancomycin and 50 mM D-alanine. This amino acid is added to feed the bacteria excess alanine, which allows the bacteria to incorporate the alanine in some cases instead of incorporating the (resistance causing) D-lactate in the pentapeptide termini of the cell wall precursor. The presence of this D-alanine supplement thus makes the assay less stringent.
Inoculate E. faecalis VanA strain in BHI broth (pick a few colonies into 3 ml BHI with 2.56 ug/ml vancomycin and grow O/N at 35° C. in a shaker rotating at 225 rpm.
Dilute the O/N culture 1:50 in BHI with 2.56 ug/ml vancomycin (0.5 ml±24.5 ml BHI) in a 125-ml flask, put back in the 35° C. shaker until the cells grow to early log phase (OD600 about 0.2, takes approximately 2 hrs). Make a 1:800 dilution of the log phase culture with BHI broth. 50 ul of these diluted cells will be used as the inoculum in the assay as described below. Add the inoculum after the other reagents.
Meanwhile, test the inoculum concentration and purity: Make 3 serial 10-fold dilutions of the inoculum in 0.2 ml BHI broth. Plate 100 ul on TSA agar plates (trypticase soy agar), incubate at 35° C. O/N, count the colonies to estimate the CFU/ml in the inoculum (it should be 10^4 -10^5 CFU/ml).
Make vancomycin stock at 50 mg/ml in ddH2 O. Filter sterilize with 0.2 um filter, and keep in the freezer. On the day of the assay, dilute vancomycin to 50 ug/ml (for VPS-20) or 54 ug/ml (for VPS-D-ala) in BHI broth.
Prepare D-alanine (Sigma) at 800 mM in ddH2O. Filter sterilize with 0.2 um filter.
The test compounds are from 0.1 mg/ml plates in 10% DMSO, 90% 50 mM HEPES, pH 7.3. Thaw at room temperature.
1. Take 40 ul 50 ug/ml vancomycin in BHI to each well of the assay plate (Final volume will be 100 ul, making vancomycin concentration 20 ug/ml)
2. For each assay plate, prepare a toxicity control plate; instead of pipetting 40 ul of the vancomycin, use 40 ul of BHI broth in each well of the assay plate.
3. Dilute 800 mM D-alanine to 200 mM in BHI broth, take 25 ul of the 200 mM D-alanine to both the assay plate and the toxic control plate.
4. Take 15 ul of 54 ug/ml vancomycin in BHI to each well of the assay plate (Final volume will be 100 ul, making vancomycin concentration 8 ug/ml)
5. For each assay plate, prepare a toxicity control plate; instead of pipetting 15 ul of the vancomycin, use 15 ul of BHI broth in each well of the assay plate.
6. Take 10 ul/well of the test compounds to the assay plates and the toxicity control plates. Do this in perfect register in the microtiter plates (change tips), and work using sterile technique (Final concentration will be 10 ug/ml test compounds, 1% DMSO). This must be done with separate tips, in perfect register.
7. Add 10 ul of 10% DMSO, 90% 50 mM HEPES, pH 7.3 in columns 1 and 12 in each plates.
8. Inoculate all wells in columns 2 to 11 with 50 ul 1/800 diluted log phase culture (prepared as indicated above). Use 50 ul sterile BHI instead of inoculum for the negative growth controls in well A-D in columns 1 and well E-H in columns 12. Add 50 ul of inoculum to Wells E-H in columns 1 and wells A-D in columns 12 for the positive growth controls.
11. […] Remove mylar lids and check the cell density (A600) in 21-24 hours using a microtiter plate reader. The plates will need to be agitated carefully to resuspend the cells before reading.

Compound	effect on the MIC for methicillin (MRSA [1])	intrinsic antimicrobial activity (MRSA [2])	also measured
4a, 5-epoxy-3-oxo-14H-4,6a,9,9-4mephenanthro (2,3-D)(1,3)dioxole-4-propionic acid	little or no effect on the MIC for methicillin	–	–
10a, 12a dimethyl 1-8-hydroxy-tetradecahydrochrysene	reduce the MIC for methicillin	not exhibiting intrinsic antimicrobial activity	–
CC1(C)CCCC2(C)C1CCC1(C)OC(=O)CC12 (single isomer, unassigned) [(3aR) -(+) -sclareolide]	little or no effect on the MIC for methicillin	–	–
C[C@@]12CCC[C@H]1[C@@H]1CC[C@H]3C[C@@H](O)CC[C@]3(C)[C@H]1CC2 [5-α-androstan-3β-ol]	reduce the MIC for methicillin	not exhibiting intrinsic antimicrobial activity	–
C[C@@]12CCC[C@H]1[C@@H]1CC[C@@H]3C[C@H](O)CC[C@]3(C)[C@H]1CC2 [5β-androstan-3-α-ol]	reduce the MIC for methicillin	not exhibiting intrinsic antimicrobial activity	–
C[C@@]12CCC[C@H]1[C@@H]1CC[C@@H]3C[C@@H](O)CC[C@]3(C)[C@H]1CC2 [5β-androstan-3β-ol]	reduce the MIC for methicillin	not exhibiting intrinsic antimicrobial activity	–
COc1cc2c(cc1OC)C(=O)CCC2 [6,7-dimethoxy-1-tetralone]	little or no effect on the MIC for methicillin	–	–
COc1ccc2c(c1)CCCC2 [6-methoxy-1,2,3,4-tetrahydronaphthalene]	little or no effect on the MIC for methicillin	–	–
COc1ccc2c(c1)CCCC2=O [6-methoxy-1-tetralone]	little or no effect on the MIC for methicillin	–	–
CCc1cc2c(cc1C(=O)CCN1CCCC1)C(C)(C)CCC2(C)C [EOPPTTN, 6-ethyl-7-[1-oxo-3-(1-pyrrolidino)]propyl-1,2,3,4-tetrahydro-1,1,4,4-tetramethylnaphthalene]	–	–	vancomycin MIC reduction in checkerboard assay ([3]; compound 0-20 μg/ml, VanB): the vancomycin MIC declined significantly; synergy with vancomycin ([3]; dose range study, VanB phenotype): synergy; vancomycin MIC reduction in checkerboard assay ([4]; compound 0-20 μg/ml, VanA): the vancomycin MIC declined significantly; synergy with vancomycin ([4]; dose range study, VanA phenotype): synergy; intrinsic activity against the control cells (E. faecalis VanA strain; no vancomycin): some intrinsic activity against the control cells; vancomycin potentiation screen result (E. faecalis VanA strain; VPS-20 and/or VPS-D-ala): positive, but less than N-benzyl thiosalicylamide
C=C1CC[C@@H]2[C@](C)(CO)[C@H](O)CC[C@@]2(C)[C@@H]1C/C=C1/C(=O)OC[C@H]1O [andrographolide]	little or no effect on the MIC for methicillin	–	–
COc1ccc2c(c1)[C@]13CCCC[C@@H]1[C@H](C2)N(C)CC3 [dextromethorphan]	little or no effect on the MIC for methicillin	–	–
C[C@]12CC[C@H](O)C[C@@H]1CC[C@@H]1[C@@H]2CC[C@]2(C)C(=O)CC[C@@H]12 [epiandrosterone]	little or no effect on the MIC for methicillin	–	–
C=C1CC[C@H](O)C/C1=C/C=C1\CCC[C@]2(C)[C@@H]([C@H](C)/C=C/[C@H](C)C(C)C)CC[C@@H]12 [ergocalciferol]	little or no effect on the MIC for methicillin	–	–
COC(=O)C1(C)CCCC2(C)c3cc(OC)ccc3CCC12 (stereo not drawn) [methyl o-methyl-podocarpate]	little or no effect on the MIC for methicillin	–	–
C[C@H]1[C@H](C)CC[C@]2(CO)CC[C@]3(C)C(=CC[C@@H]4[C@@]5(C)CC[C@H](O)C(C)(C)[C@@H]5CC[C@]43C)[C@H]12 [uvaol]	reduce the MIC for methicillin	not exhibiting intrinsic antimicrobial activity	–
C[C@]12CC[C@@H]3c4ccc(O)cc4CC[C@H]3[C@@H]1CC[C@H]2O [α-estradiol]	little or no effect on the MIC for methicillin	–	–
COc1ccc2c(c1)CC[C@@H]1[C@@H]2CC[C@]2(C)[C@@H](O)CC[C@@H]12 [β-estradiol-3-methyl ether]	reduce the MIC for methicillin	not exhibiting intrinsic antimicrobial activity	–
C[C@]12CC[C@@H]3c4ccc(O)cc4CC[C@H]3[C@@H]1CC[C@@H]2O [β-estradiol]	little or no effect on the MIC for methicillin	–	–

From US5883074A, “Potentiators of antibacterial agents” (priority 1995, dated 1999)
